Laboratory results from US9108957B2 (MITSUBISHI TANABE PHARMA CORPORATION, priority 2009, dated 2015).

Target: human recombinant TPK1 (Homo sapiens, UniProt P49841)
Assay: Inhibitory activity against P-GS1 phosphorylation by TPK1 (Kinase Glo luminescence)
Format: biochemical
Settings: 7.5 μM P-GS1, 10 μM ATP, 25° C. for 16 hours, Kinase Glo Reagent luminescent signal
Protocol: Inhibitory Activity of the Medicament of the Present Invention Against P-GS1 Phosphorylation by Bovine Cerebral TPK1
A mixture containing 100 mM HEPES-sodium hydroxide (pH 7.2), 1 mM magnesium acetate, 1 mM EGTA, 1 mM dithiothreitol (DTT), 0.02% Tween 20, 7.5 μM P-GS1, 10 μM ATP, human recombinant TPK1 and a compound shown in Table (a final mixture contained 1% DMSO deriving from a solution of a test compound prepared in the presence of 10% DMSO) was used as a reaction system. The phosphorylation was started by adding ATP, and the reaction was conducted at 25° C. for 16 hours. Then equal volume of Kinase Glo Reagent (Promega) was added to the mixture and luminescent signal from the mixture was measured. IC50 for each compound was calculated by setting the data of mixture without enzyme as 0% activity and that without compound as 100% activity.

human recombinant TPK1, sequence (P49841 whole entry): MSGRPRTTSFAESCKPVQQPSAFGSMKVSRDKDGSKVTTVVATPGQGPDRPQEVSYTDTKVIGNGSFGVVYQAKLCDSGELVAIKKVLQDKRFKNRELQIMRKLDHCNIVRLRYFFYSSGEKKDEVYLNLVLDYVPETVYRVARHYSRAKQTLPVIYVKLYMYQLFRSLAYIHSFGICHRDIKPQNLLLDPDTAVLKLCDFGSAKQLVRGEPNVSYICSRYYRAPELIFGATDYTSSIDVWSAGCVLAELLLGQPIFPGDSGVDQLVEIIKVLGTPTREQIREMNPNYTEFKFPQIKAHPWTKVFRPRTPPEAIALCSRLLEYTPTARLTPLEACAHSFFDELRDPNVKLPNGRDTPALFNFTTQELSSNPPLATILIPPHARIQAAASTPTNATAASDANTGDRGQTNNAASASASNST

| Compound | IC50 [nM] |
| --- | --- |
| Cn1c(N2CCOC(c3ccccc3F)CC2)nc(-c2ccncc2)cc1=O (stereo not drawn) [Compound A110, 2-(7-(2-fluorophenyl)-1,4-oxazepan-4-yl)-3-methyl-6-(pyridin-4-yl)pyrimidin-4(3H)-one] | 29.2 |
| Cc1noc(-c2ccc([C@H]3CN(c4nc(-c5ccncc5F)cc(=O)n4C)CCCO3)cc2)n1 [Compound A019, (S)-2-[2-[4-(3-methyl-1,2,4-oxadiazol-5-yl)-phenyl]-1,4-oxazepan-4-yl]-6-(3-fluoropyridin-4-yl)-3-methylpyrimidin-4(3H)-one] | 11.1 |
| Cn1c(N2CCCO[C@@H](c3ccc(C(N)=O)cc3)C2)nc(-c2ccncc2F)cc1=O [Compound A007, (S)-2-[2-(4-aminocarbonylphenyl)-1,4-oxazepan-4-yl]-6-(3-fluoropyridin-4-yl)-3-methylpyrimidin-4(3H)-one] | 3.5 |
| Cn1c(N2CCOC(c3ccccc3F)CC2)nc(-c2ccncc2F)cc1=O (stereo not drawn) [Compound A014, 2-[7-(2-fluorophenyl)-1,4-oxazepan-4-yl]-6-(3-fluoropyridin-4-yl)-3-methylpyrimidin-4(3H)-one] | 8.15 |
| Cc1noc(-c2ccc(C3COCCN(c4nc(-c5ccncc5F)cc(=O)n4C)C3)cc2)n1 (stereo not drawn) [Compound A077, 2-[6-[4-(3-methyl-1,2,4-oxadiazol-5-yl)-phenyl]-1,4-oxazepan-4-yl]-6-(3-fluoropyridin-4-yl)-3-methylpyrimidin-4(3H)-one] | 5.9 |
| Cn1c(N2CCOCC(c3ccc(-c4ncon4)cc3)C2)nc(-c2ccncc2F)cc1=O (stereo not drawn) [Compound A078, 2-[6-[4-(1,2,4-oxadiazol-3-yl)-phenyl]-1,4-oxazepan-4-yl]-6-(3-fluoropyridin-4-yl)-3-methylpyrimidin-4(3H)-one] | 7.1 |
| Cn1c(N2CCCN(c3ccc(F)cc3)CC2)nc(-c2ccncc2)cc1=O [Compound A005, 2-[4-(4-fluorophenyl)-1,4-diazepan-1-yl]-3-methyl-6-(pyridin-4-yl)pyrimidin-4(3H)-one] | 84.2 |
| Cc1nc(-c2ccc(C3CCN(c4nc(-c5ccncn5)cc(=O)n4C)CCO3)cc2)no1 (single isomer, unassigned; (+)) [Compound A100, (+)-2-[7-[4-(5-methyl-1,2,4-oxadiazol-3-yl)-phenyl]-1,4-oxazepan-4-yl]-3-methyl-6-(pyrimidin-4-yl)pyrimidin-4(3H)-one] | 15 |
| Cc1noc(-c2cccc([C@H]3CN(c4nc(-c5ccncc5F)cc(=O)n4C)CCCO3)c2)n1 [Compound A032, (S)-2-[2-[3-(3-methyl-1,2,4-oxadiazol-5-yl)-phenyl]-1,4-oxazepan-4-yl]-6-(3-fluoropyridin-4-yl)-3-methylpyrimidin-4(3H)-one] | 21.6 |
| Cn1c(N2CCCO[C@H](c3ccc(C#N)cc3)C2)nc(-c2ccncc2F)cc1=O [Compound A063, (R)-2-[2-(4-cyanophenyl)-1,4-oxazepan-4-yl]-6-(3-fluoropyridin-4-yl)-3-methylpyrimidin-4(3H)-one] | 826 |
| Cn1c(N2CCOC(c3ccc(F)cc3)CC2)nc(-c2ccncc2F)cc1=O (stereo not drawn) [Compound A108, 2-[7-(4-fluorophenyl)-1,4-oxazepan-4-yl]-6-(3-fluoropyridin-4-yl)-3-methylpyrimidin-4(3H)-one] | 24.6 |
| Cn1c(N2CCCO[C@H](c3cccc(C#N)c3)C2)nc(-c2ccncc2F)cc1=O [Compound A047] | 67.5 |
| Cc1nc(-c2ccc(C3CCN(c4nc(-c5ccncn5)cc(=O)n4C)CCO3)cc2)no1 (single isomer, unassigned; (-)) [Compound A112, (−)-2-[7-[4-(5-methyl-1,2,4-oxadiazol-3-yl)-phenyl]-1,4-oxazepan-4-yl]-3-methyl-6-(pyrimidin-4-yl)pyrimidin-4(3H)-one] | 30 |
| Cn1c(N2CCCO[C@H](c3cccc(Br)c3)C2)nc(-c2ccncc2F)cc1=O [Compound A025, (R)-2-[2-(3-bromophenyl)-1,4-oxazepan-4-yl]-6-(3-fluoropyridin-4-yl)-3-methylpyrimidin-4(3H)-one] | 13.7 |
| Cn1c(N2CCOC(c3cccc(F)c3)CC2)nc(-c2ccncn2)cc1=O (stereo not drawn) [Compound A106, 2-[7-(3-fluorophenyl)-1,4-oxazepan-4-yl]-3-methyl-6-(pyrimidin-4-yl)pyrimidin-4(3H)-one] | 20.5 |
| Cc1noc(-c2cccc([C@H]3CN(c4nc(-c5ccncc5)cc(=O)n4C)CCCO3)c2)n1 [Compound A056, (S)-2-[2-[3-(3-methyl-1,2,4-oxadiazol-5-yl)-phenyl]-1,4-oxazepan-4-yl]-3-methyl-6-(pyridin-4-yl)pyrimidin-4(3H)-one] | 169 |
| Cn1c(N2CCCO[C@@H](c3cccc(C(N)=O)c3)C2)nc(-c2ccncc2F)cc1=O [Compound A012] | 6.7 |
| Cn1c(N2CCCN(c3ccc(F)cc3)CC2)nc(-c2ccncc2F)cc1=O [Compound A003, 2-[4-(4-fluorophenyl)-1,4-diazepan-1-yl]-6-(3-fluoropyridin-4-yl)-3-methylpyrimidin-4(3H)-one] | 18.4 |

| Compound | IC50 [nM] |
| --- | --- |
| Cn1c(N2CCCO[C@H](c3cccc(C(N)=O)c3)C2)nc(-c2ccncc2)cc1=O [Compound A048, (R)-2-[2-(3-aminocarbonylphenyl)-1,4-oxazepan-4-yl]-3-methyl-6-(pyridin-4-yl)pyrimidin-4(3H)-one] | 68.8 |
| Cn1c(N2CCOC(c3ccc(F)cc3)CC2)nc(-c2ccncn2)cc1=O (stereo not drawn) [Compound A098, 2-[7-(4-fluorophenyl)-1,4-oxazepan-4-yl]-3-methyl-6-(pyrimidin-4-yl)pyrimidin-4(3H)-one] | 13.8 |
| Cn1c(N2CCOC(c3ccc(-c4ncon4)cc3)CC2)nc(-c2ccncc2F)cc1=O (single isomer, unassigned; (+)) [Compound A089] | 5.4 |
| Cn1c(N2CCCO[C@@H](c3cccc(C#N)c3)C2)nc(-c2ccncc2)cc1=O [Compound A046, (S)-2-[2-(3-cyanophenyl)-1,4-oxazepan-4-yl]-3-methyl-6-(pyridin-4-yl)pyrimidin-4(3H)-one] | 61.5 |
| Cc1noc(-c2cccc([C@H]3CN(c4nc(-c5ccncn5)cc(=O)n4C)CCCO3)c2)n1 [Compound A045, (S)-2-[2-[3-(3-methyl-1,2,4-oxadiazol-5-yl)phenyl]-1,4-oxazepan-4-yl]-3-methyl-6-(pyrimidin-4-yl)pyrimidin-4(3H)-one] | 57.1 |
| Cn1c(N2CCCO[C@H](c3cccc(Br)c3)C2)nc(-c2ccncc2)cc1=O [Compound A023, (R)-2-[2-(3-bromophenyl)-1,4-oxazepan-4-yl]-3-methyl-6-(pyridin-4-yl)pyrimidin-4(3H)-one] | 12.7 |
| Cn1c(N2CCCO[C@@H](c3ccc(C(N)=O)cc3)C2)nc(-c2ccncn2)cc1=O [Compound A018] | 11 |
| Cn1c(N2CCCO[C@H](c3cccc(C(N)=O)c3)C2)nc(-c2ccncc2F)cc1=O [Compound A029] | 18.8 |
| Cc1nc(-c2ccc([C@H]3CN(c4nc(-c5ccncc5F)cc(=O)n4C)CCCO3)cc2)no1 [Compound A027, (S)-2-[2-[4-(5-methyl-1,2,4-oxadiazol-3-yl)-phenyl]-1,4-oxazepan-4-yl]-6-(3-fluoropyridin-4-yl)-3-methylpyrimidin-4(3H)-one] | 15.4 |
| Cn1c(N2CCOC(c3ccc(-c4ncno4)cc3)CC2)nc(-c2ccncn2)cc1=O (single isomer, unassigned; (-)) [Compound A116, (−)-2-[7-[4-(1,2,4-oxadiazol-5-yl)-phenyl]-1,4-oxazepan-4-yl]-3-methyl-6-(pyrimidin-4-yl)pyrimidin-4(3H)-one] | 48 |
| Cn1c(N2CCCO[C@H](c3ccc(F)cc3)C2)nc(-c2ccncc2F)cc1=O [Compound A054, (R)-2-[2-(4-fluorophenyl)-1,4-oxazepan-4-yl]-6-(3-fluoropyridin-4-yl)-3-methylpyrimidin-4(3H)-one] | 111 |
| Cn1c(N2CCCO[C@@H](c3ccc(C#N)cc3)C2)nc(-c2ccncc2F)cc1=O [Compound A013, (S)-2-[2-(4-cyanophenyl)-1,4-oxazepan-4-yl]-6-(3-fluoropyridin-4-yl)-3-methylpyrimidin-4(3H)-one] | 7.3 |
| C[C@@H]1COCCCN1c1nc(-c2ccncn2)cc(=O)n1C [Compound A064, (R)-3-methyl-2-(3-methyl-1,4-oxazepan-4-yl)-6-(pyrimidin-4-yl)pyrimidin-4(3H)-one] | 23.2 |
| Cc1nc(-c2cccc([C@@H]3CN(c4nc(-c5ccncc5F)cc(=O)n4C)CCCO3)c2)no1 [Compound A055] | 164 |
| Cn1c(N2CCCO[C@@H](c3ccc(Br)cc3)C2)nc(-c2ccncc2F)cc1=O [Compound A010, (S)-2-[2-(4-bromophenyl)-1,4-oxazepan-4-yl]-6-(3-fluoropyridin-4-yl)-3-methylpyrimidin-4(3H)-one] | 5.5 |
| Cn1c(N2CCCO[C@@H](c3ccc(F)cc3)C2)nc(-c2ccncn2)cc1=O [Compound A092, (S)-2-[2-(4-fluorophenyl)-1,4-oxazepan-4-yl]-3-methyl-6-(pyrimidin-4-yl)pyrimidin-4(3H)-one] | 8.3 |
| Cn1c(N2CCCO[C@H](c3ccc(Br)cc3)C2)nc(-c2ccncc2F)cc1=O [Compound A044, (R)-2-[2-(4-bromophenyl)-1,4-oxazepan-4-yl]-6-(3-fluoropyridin-4-yl)-3-methylpyrimidin-4(3H)-one] | 52.4 |
| Cc1noc(-c2cccc([C@@H]3CN(c4nc(-c5ccncc5F)cc(=O)n4C)CCCO3)c2)n1 [Compound A059, (R)-2-[2-[3-(3-methyl-1,2,4-oxadiazol-5-yl)-phenyl]-1,4-oxazepan-4-yl]-6-(3-fluoropyridin-4-yl)-3-methylpyrimidin-4(3H)-one] | 241 |
